Results on ten compounds are retold here after ChEMBL document CHEMBL1201862, “PubChem BioAssay data set” (2004).

Each structure is given as a SMILES string.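 Step 1: Grow cells in 96-well plates. Step 2: Expose to compound for 48 hours at 5 concentrations. Step 3: Interpolate endpoints linearly; if unreached, use highest concentration. The concentration for 50% growth inhibition is given as GI50.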 Activity calls are given as the source filed them. No stated cut-off is given here; in the data, active = GI50 up to about 1.1 µM and inactive = higher.

Some test systems named below: LOX IMVI; MDA-MB-231; PC-3; SF-539; OVCAR-4; ACHN; OVCAR-8; RPMI-8226; BT-549; SK-MEL-5; SW-620; SNB-19; MOLT-4; 786-0; SK-MEL-28; HT-29; HL-60; SK-OV-3; M14.
Common to all, as to test: DTP human tumour cell line panel, 48 h

A word on the GI50: it is the concentration at which growth is held to half of that of the control.

With `COc1ccc2c(c1)CCC1=C/C(=N\NC(N)=O)CCC12C` (stereo not given), the GI50 in the assay with LOX IMVI, with MDA-MB-231, in the assay on PC-3, in the assay with SF-539, in the assay on OVCAR-4 and in the assay on ACHN was > 10 µM (inactive) each time. Besides, the GI50 in the assay on OVCAR-8, with RPMI-8226, in the assay on BT-549, with SK-MEL-5, in the assay on SW-620 and in the assay on SNB-19 was > 10 µM (inactive) throughout. Further, the GI50 in the assay with MOLT-4 is > 10 µM (inactive); in the assay on 786-0, > 10 µM (inactive); with SK-MEL-28, > 10 µM (inactive); in the assay on HT-29, > 10 µM (inactive); in the assay on HL-60, 9.62 µM (inactive); in the assay on SK-OV-3, > 10 µM (inactive). The GI50 with M14 is > 10 µM (inactive).
With `C[N+](C)(C)/N=C\c1ccc(O)c(O)c1`, the GI50 in the assay on LOX IMVI, with MDA-MB-231, in the assay on PC-3, in the assay on SF-539, in the assay on OVCAR-4 and in the assay with ACHN was > 100 µM (inactive) in each case. For the same compound, the GI50 in the assay with OVCAR-8, with RPMI-8226, in the assay on BT-549, with SK-MEL-5, with SW-620 and in the assay with SNB-19 was > 100 µM (inactive) each time. The GI50 with MOLT-4 was > 100 µM (inactive); with 786-0, > 100 µM (inactive); in the assay on SK-MEL-28, > 59.4 µM (inactive); in the assay on HT-29 it was > 100 µM (inactive); in the assay with HL-60, > 100 µM (inactive); in the assay with SK-OV-3 it was > 100 µM (inactive). For the same compound, the GI50 with M14 is > 100 µM (inactive).
Take `O=C(c1c2c(cc3c1CC1(Cc4cc5c(cc4C1)CCCC5)C3)CCCC2)C(Br)Br`: the GI50 is 1.79 µM (inactive) in the assay with LOX IMVI; 17.4 µM (inactive) in the assay on MDA-MB-231; 12.5 µM (inactive) in the assay on PC-3; 20.2 µM (inactive) with SF-539; 12.4 µM (inactive) in the assay on OVCAR-4; 13.4 µM (inactive) in the assay with ACHN. The GI50 was 15 µM (inactive) in the assay with OVCAR-8; 5.04 µM (inactive) with RPMI-8226; 5.48 µM (inactive) with BT-549; 5.24 µM (inactive) in the assay on SK-MEL-5; 5.48 µM (inactive) in the assay on SW-620; > 40.9 µM (inactive) in the assay on SNB-19. Besides, the GI50 with MOLT-4 was 1.85 µM (inactive); in the assay on 786-0, 14.6 µM (inactive); in the assay with SK-MEL-28, 16.5 µM (inactive); with HT-29, 20.3 µM (inactive); in the assay with HL-60, 3.18 µM (inactive); in the assay on SK-OV-3, 21.4 µM (inactive). Moreover, in the assay on M14, the GI50 is 4.18 µM (inactive).
For `CC(C)NC(=O)OCCN=C1c2ccccc2CCc2ccccc21`, the GI50 was 26.6 µM (inactive) with LOX IMVI; 25.2 µM (inactive) in the assay on MDA-MB-231; 20.5 µM (inactive) in the assay with PC-3; 22.3 µM (inactive) with SF-539; 12.2 µM (inactive) in the assay with OVCAR-4; 27.2 µM (inactive) in the assay on ACHN. Moreover, the GI50 was 27 µM (inactive) in the assay on OVCAR-8; 18.2 µM (inactive) in the assay with RPMI-8226; 13.3 µM (inactive) in the assay on BT-549; 13.9 µM (inactive) with SK-MEL-5; 28.3 µM (inactive) in the assay on SW-620; 20.9 µM (inactive) in the assay on SNB-19. Besides, the GI50 is 14.8 µM (inactive) in the assay on MOLT-4; 43.6 µM (inactive) in the assay on 786-0; 19.7 µM (inactive) with SK-MEL-28; 21.4 µM (inactive) in the assay with HT-29; 19.2 µM (inactive) in the assay on HL-60; 24.8 µM (inactive) in the assay on SK-OV-3. Moreover, the GI50 with M14 is 20.3 µM (inactive).
Turning to `COc1ccc(Nc2n[nH]c(NS(=O)(=O)c3cc(C)c(Cl)cc3S)n2)cc1`, the GI50 with LOX IMVI, in the assay on MDA-MB-231, in the assay on PC-3, in the assay with SF-539, in the assay on OVCAR-4 and in the assay with ACHN was > 100 µM (inactive) in each case. Besides, the GI50 in the assay on OVCAR-8, in the assay with RPMI-8226, with BT-549, in the assay with SK-MEL-5, in the assay with SW-620 and in the assay with SNB-19 was > 100 µM (inactive) each time. Besides, the GI50 in the assay on MOLT-4, with 786-0, in the assay with SK-MEL-28, with HT-29, with HL-60 and in the assay with SK-OV-3 was > 100 µM (inactive) each time. For the same compound, the GI50 in the assay on M14 was > 100 µM (inactive).
For `C=C(C)[C@H]1C[C@@H]2O[C@@](O)(/C(C)=C\C(=O)/C=C(/C)C[C@H]3OC(=O)[C@@]24O[C@H]34)[C@@H]1O`, the GI50 with LOX IMVI, in the assay with MDA-MB-231, with PC-3, in the assay with SF-539, with OVCAR-4 and with ACHN was > 100 µM (inactive) throughout. The GI50 with OVCAR-8, with RPMI-8226, in the assay on BT-549, with SK-MEL-5, with SW-620 and in the assay on SNB-19 was > 100 µM (inactive) throughout. Further, the GI50 with MOLT-4, in the assay with 786-0, in the assay with SK-MEL-28, in the assay with HT-29, with HL-60 and in the assay with SK-OV-3 was > 100 µM (inactive) each time. Moreover, in the assay on M14, the GI50 is > 100 µM (inactive).
With `COC(=O)C1(Cc2ccc(C)cc2)Cc2c(C)cccc2C1=O` (stereo not given), the GI50 was 18.9 µM (inactive) in the assay on LOX IMVI; 31.1 µM (inactive) in the assay with MDA-MB-231; 12.4 µM (inactive) with PC-3; 16.4 µM (inactive) with SF-539; 20.3 µM (inactive) in the assay with OVCAR-4; 26.5 µM (inactive) in the assay on ACHN. Besides, the GI50 with OVCAR-8 is 27.7 µM (inactive); with RPMI-8226 it was 15.1 µM (inactive); in the assay on BT-549, 16.3 µM (inactive); with SK-MEL-5, 12.9 µM (inactive); in the assay with SW-620, 10.9 µM (inactive); in the assay on SNB-19, 17.7 µM (inactive). The GI50 in the assay on MOLT-4 is 20 µM (inactive); in the assay with 786-0, 20.5 µM (inactive); in the assay with SK-MEL-28 it was 26 µM (inactive); with HT-29, 8.83 µM (inactive); in the assay on HL-60 it was 5.6 µM (inactive); in the assay on SK-OV-3, 14.5 µM (inactive). In the assay with M14, the GI50 is 16.6 µM (inactive).
Take `COC(=O)C1=COC(OC2OC(CO)C(O)C(O)C2O)C2C3CN4CCc5c([nH]c6ccccc56)C4(CC12)O3` (stereo not given): the GI50 with LOX IMVI, in the assay on MDA-MB-231, in the assay with PC-3, in the assay with SF-539, in the assay on OVCAR-4 and in the assay on ACHN was > 100 µM (inactive) in each case. Besides, the GI50 in the assay with OVCAR-8, in the assay on RPMI-8226, with BT-549, in the assay on SK-MEL-5, in the assay on SW-620 and in the assay with SNB-19 was > 100 µM (inactive) throughout. In addition, the GI50 with MOLT-4, in the assay on 786-0, with SK-MEL-28, with HT-29, with HL-60 and in the assay on SK-OV-3 was > 100 µM (inactive) each time. Besides, the GI50 with M14 is > 100 µM (inactive).
For `CCN(CCCl)c1cc(CN(C)C)cc(NC(=O)c2ccc(C(=O)Nc3cc(CN(C)C)cc(N(CC)CCCl)c3)cc2)c1`, the 50% growth inhibitory concentration (GI50) in the assay on LOX IMVI was 0.0826 µM (active); in the assay with MDA-MB-231, 0.323 µM (active); in the assay with PC-3, 0.19 µM (active); with SF-539 it was 0.0762 µM (active); with OVCAR-4, 0.5 µM (active); with ACHN, 0.162 µM (active). In addition, the GI50 in the assay with OVCAR-8 was 0.224 µM (active); in the assay on RPMI-8226 it was 0.0885 µM (active); with BT-549 it was 0.226 µM (active); in the assay on SK-MEL-5, 0.158 µM (active); in the assay with SW-620 it was 0.149 µM (active); with SNB-19 it was 0.0873 µM (active). In addition, the GI50 was 0.0183 µM (active) in the assay on MOLT-4; 0.069 µM (active) in the assay on 786-0; 0.159 µM (active) with SK-MEL-28; 0.0951 µM (active) with HT-29; < 0.01 µM (active) with HL-60; 0.226 µM (active) with SK-OV-3. Moreover, in the assay on M14, the GI50 was 0.291 µM (active).
Take `Cc1nn(-c2ccccc2)c(C)c1/C=N/NC(=O)c1sc(=S)n(-c2ccc(Cl)cc2)c1N`: the GI50 in the assay on LOX IMVI is 3.27 µM (inactive); in the assay with MDA-MB-231, 5.02 µM (inactive); with PC-3, 4.07 µM (inactive); in the assay on SF-539 it was 3.64 µM (inactive); in the assay on OVCAR-4, 3.94 µM (inactive); in the assay on ACHN it was 4.18 µM (inactive). Further, the GI50 was 32.3 µM (inactive) with OVCAR-8; 2.67 µM (inactive) with RPMI-8226; 21.2 µM (inactive) in the assay with BT-549; 4.03 µM (inactive) with SK-MEL-5; > 100 µM (inactive) in the assay with SW-620; > 100 µM (inactive) with SNB-19. For the same compound, the GI50 with MOLT-4 is 8.2 µM (inactive); in the assay on 786-0, 3.89 µM (inactive); with SK-MEL-28, 5.4 µM (inactive); in the assay on HT-29, 5.05 µM (inactive); in the assay with HL-60 it was 8.17 µM (inactive); with SK-OV-3, 3.87 µM (inactive). The GI50 with M14 is 5.24 µM (inactive).
